According to PubChem BioAssay AID330 (DTP/NCI, 2004):
Several values for one entry are separate records, joined by “and”; a condition that tells them apart may be missing. Equal entries are not always repeated. Inconclusive results and toxic doses are left out.

Test system: P388 leukemia ip, CD2F1 mice, survival T/C
Assay: NCI In Vivo Anticancer Drug Screen. Data for tumor model P388 Leukemia (intraperitoneal) in CD2F1 (CDF1) mice
Conditions: endpoint: median survival time, higher = longer survival
Outline: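 Mice carrying the transplanted tumor received test compound or vehicle. Survival was recorded in each group, and the value is the treated-group measurement divided by that of the vehicle-treated control group.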

[1] = dose: 50.0 mg/kg/injection, schedule: Q01DX009 (ip), vehicle: Klucel (hydroxypropylcellulose) (HPC)

SMILES: Cc1ccc(-n2c(O)c(N=Nc3ccc(Br)cc3)c(=O)n(-c3ccc(Br)cc3)c2=S)cc1
- T/C (dose: 100.0 mg/kg/injection, schedule: Q04DX002 (ip), vehicle: saline with Tween-80): 96 % of control
- T/C (dose: 200.0 mg/kg/injection, schedule: Q04DX002 (ip), vehicle: saline with Tween-80): 99 % of control
- T/C (dose: 400.0 mg/kg/injection, schedule: Q04DX002 (ip), vehicle: saline with Tween-80): 94 % of control

SMILES: C/C(=C\C(=O)c1ccc(F)cc1)N1CCN(c2ccc(F)cc2)CC1
- T/C (dose: 50.0 mg/kg/injection, schedule: Q01DX005 (ip), vehicle: other): 96 % of control
- T/C (dose: 100.0 mg/kg/injection, schedule: Q01DX005 (ip), vehicle: other): 93 % of control

SMILES: COC(OC)C(C(=O)c1ccc(OCc2ccccc2)cc1O)c1cc2c(cc1OCc1ccccc1)OCO2 (stereo unspecified)
- T/C (dose: 100.0 mg/kg/injection, schedule: Q04DX003 (ip), vehicle: Klucel (hydroxypropylcellulose) (HPC)): 96 % of control
- T/C (dose: 200.0 mg/kg/injection, schedule: Q04DX003 (ip), vehicle: Klucel (hydroxypropylcellulose) (HPC)): 101 % of control
- T/C (dose: 400.0 mg/kg/injection, schedule: Q04DX003 (ip), vehicle: Klucel (hydroxypropylcellulose) (HPC)): 98 % of control

SMILES: CNCCC(Oc1ccccc1OC)c1ccccc1 (stereo unspecified)
- T/C (dose: 12.5 mg/kg/injection, schedule: Q04DX002 (ip), vehicle: saline with Tween-80): 106 % of control
- T/C (dose: 25.0 mg/kg/injection, schedule: Q04DX002 (ip), vehicle: saline with Tween-80): 100 % of control
- T/C (dose: 25.0 mg/kg/injection, schedule: Q04DX002 (ip), vehicle: saline): 113 % of control
- T/C (dose: 50.0 mg/kg/injection, schedule: Q04DX002 (ip), vehicle: saline with Tween-80): 99 % of control and 98 % of control
- T/C (dose: 50.0 mg/kg/injection, schedule: Q04DX002 (ip), vehicle: saline): 103 % of control

SMILES: CC(C)=CC(=O)OC1C2C(C)=CC(=O)C(O)C2(C)C2C3(O)OCC24C(CC(=O)OC14)C(C)C3O (stereo unspecified)
- T/C (dose: 0.5 mg/kg/injection, schedule: Q01DX009 (ip), vehicle: distilled water + Tween-80): 161 % of control
- T/C (dose: 1.0 mg/kg/injection, schedule: Q01DX009 (ip), vehicle: distilled water + Tween-80): 169 % of control and 198 % of control
- T/C (dose: 2.0 mg/kg/injection, schedule: Q01DX009 (ip), vehicle: distilled water + Tween-80): 180 % of control and 191 % of control

SMILES: COc1cc2c(cc1OC)C(OC)N(C)c1c-2ccc2cc3c(cc12)OCO3 (stereo unspecified)
- T/C (dose: 2.0 mg/kg/injection, schedule: Q01DX009 (ip), vehicle: water): 122 % of control
- T/C (dose: 2.0 mg/kg/injection, schedule: Q03HX008 (ip), vehicle: water): 109 % of control
- T/C (dose: 4.0 mg/kg/injection, schedule: Q01DX009 (oral), vehicle: water): 104 % of control
- T/C (dose: 4.0 mg/kg/injection, schedule: Q01DX009 (sc), vehicle: water): 104 % of control
- T/C (dose: 4.0 mg/kg/injection, schedule: Q03HX008 (ip), vehicle: water): 122 % of control
- T/C (dose: 8.0 mg/kg/injection, schedule: Q01DX009 (oral), vehicle: water): 100 % of control
- T/C (dose: 8.0 mg/kg/injection, schedule: Q01DX009 (sc), vehicle: water): 100 % of control
- T/C (dose: 8.0 mg/kg/injection, schedule: Q04DX003 (ip), vehicle: water): 119 % of control
- T/C (dose: 16.0 mg/kg/injection, schedule: Q01DX001 (ip), vehicle: water): 107 % of control
- T/C (dose: 16.0 mg/kg/injection, schedule: Q01DX009 (oral), vehicle: water): 101 % of control
- T/C (dose: 16.0 mg/kg/injection, schedule: Q01DX009 (sc), vehicle: water): 97 % of control
- T/C (dose: 16.0 mg/kg/injection, schedule: Q04DX003 (ip), vehicle: water): 122 % of control
- T/C (dose: 16.0 mg/kg/injection, schedule: Q08DX002 (ip), vehicle: water): 109 % of control
- T/C (dose: 25.0 mg/kg/injection, schedule: Q01DX009 (ip), vehicle: other): 158 % of control
- T/C (dose: 32.0 mg/kg/injection, schedule: Q01DX001 (ip), vehicle: water): 104 % of control
- T/C (dose: 32.0 mg/kg/injection, schedule: Q01DX009 (ip), vehicle: saline): 90 % of control
- T/C (dose: 32.0 mg/kg/injection, schedule: Q01DX009 (oral), vehicle: water): 101 % of control
- T/C (dose: 32.0 mg/kg/injection, schedule: Q01DX009 (sc), vehicle: water): 88 % of control
- T/C (dose: 32.0 mg/kg/injection, schedule: Q04DX003 (ip), vehicle: water): 124 % of control
- T/C (dose: 32.0 mg/kg/injection, schedule: Q08DX002 (ip), vehicle: water): 119 % of control
- T/C (dose: 37.5 mg/kg/injection, schedule: Q01DX009 (ip), vehicle: saline with Tween-80): 118 % of control
- T/C (dose: 44.0 mg/kg/injection, schedule: Q04DX003 (ip), vehicle: saline with Tween-80): 154 % of control
- T/C (dose: 64.0 mg/kg/injection, schedule: Q01DX001 (ip), vehicle: water): 106 % of control
- T/C (dose: 64.0 mg/kg/injection, schedule: Q01DX009 (oral), vehicle: water): 109 % of control
- T/C (dose: 64.0 mg/kg/injection, schedule: Q04DX003 (ip), vehicle: water): 106 % of control
- T/C (dose: 64.0 mg/kg/injection, schedule: Q08DX002 (ip), vehicle: water): 109 % of control
- T/C (dose: 66.0 mg/kg/injection, schedule: Q04DX003 (ip), vehicle: saline with Tween-80): 154 % of control and 181 % of control
- T/C (dose: 75.0 mg/kg/injection, schedule: Q01DX009 (ip), vehicle: saline with Tween-80): 86 % of control
- T/C (dose: 150.0 mg/kg/injection, schedule: Q04DX003 (ip), vehicle: saline with Tween-80): 90 % of control

SMILES: [O-][n+]1nccnc1N1CCCCC1
- T/C (dose: 100.0 mg/kg/injection, schedule: Q04DX002 (ip), vehicle: saline): 90 % of control
- T/C (dose: 200.0 mg/kg/injection, schedule: Q04DX002 (ip), vehicle: saline): 98 % of control
- T/C (dose: 400.0 mg/kg/injection, schedule: Q04DX002 (ip), vehicle: saline): 100 % of control

SMILES: Cc1cc(NC(=S)SCc2ccc(Cl)cc2)ccc1Cl
- T/C [1]: 103 % of control and 118 % of control
- T/C (dose: 50.0 mg/kg/injection, schedule: Q01DX009 (ip), vehicle: suspension in saline): 97 % of control
- T/C (dose: 100.0 mg/kg/injection, schedule: Q01DX009 (ip), vehicle: suspension in saline): 92 % of control
- T/C (dose: 200.0 mg/kg/injection, schedule: Q01DX009 (ip), vehicle: suspension in saline): 96 % of control

SMILES: CC(O)CO (stereo unspecified)
- T/C (dose: 1.56 % in 0.5 ml injection vol, schedule: Q01DX009 (ip), vehicle: water): 112 % of control
- T/C (dose: 3.12 % in 0.5 ml injection vol, schedule: Q01DX009 (ip), vehicle: water): 119 % of control
- T/C (dose: 6.25 % in 0.5 ml injection vol, schedule: Q01DX009 (ip), vehicle: water): 110 % of control and 119 % of control
- T/C (dose: 12.5 % in 0.5 ml injection vol, schedule: Q01DX009 (ip), vehicle: water): 111 % of control and 113 % of control
- T/C (dose: 25.0 % in 0.5 ml injection vol, schedule: Q01DX009 (ip), vehicle: water): 104 % of control and 110 % of control
- T/C (dose: 50.0 % in 0.5 ml injection vol, schedule: Q01DX009 (ip), vehicle: water): 88 % of control

SMILES: OC1(c2cc3ccccc3c3ccccc23)c2ccccc2-c2ccccc21
- T/C (dose: 50.0 mg/kg/injection, schedule: Q01DX005 (ip), vehicle: saline with Tween-80): 98 % of control
- T/C (dose: 100.0 mg/kg/injection, schedule: Q01DX005 (ip), vehicle: saline with Tween-80): 100 % of control
- T/C (dose: 200.0 mg/kg/injection, schedule: Q01DX005 (ip), vehicle: saline with Tween-80): 100 % of control

SMILES: CN(C)N=Nc1ccc(C(=O)NC(Cc2ccccc2)C(=O)O)cc1 (stereo unspecified)
- T/C (dose: 12.5 mg/kg/injection, schedule: Q01DX005 (ip), vehicle: Klucel (hydroxypropylcellulose) (HPC)): 100 % of control
- T/C (dose: 25.0 mg/kg/injection, schedule: Q01DX005 (ip), vehicle: Klucel (hydroxypropylcellulose) (HPC)): 101 % of control
- T/C (dose: 50.0 mg/kg/injection, schedule: Q01DX005 (ip), vehicle: Klucel (hydroxypropylcellulose) (HPC)): 98 % of control and 102 % of control
- T/C (dose: 200.0 mg/kg/injection, schedule: Q01DX005 (ip), vehicle: Klucel (hydroxypropylcellulose) (HPC)): 107 % of control

SMILES: O=C(O)c1cc(Br)no1
- T/C (dose: 50.0 mg/kg/injection, schedule: Q01DX009 (ip), vehicle: saline): 95 % of control
- T/C (dose: 100.0 mg/kg/injection, schedule: Q01DX009 (ip), vehicle: saline): 90 % of control
- T/C (dose: 200.0 mg/kg/injection, schedule: Q01DX009 (ip), vehicle: saline): 89 % of control

SMILES: CCCCCCCCCCCCCCCC(=O)OCC(=O)OC
- T/C [1]: 101 % of control
- T/C (dose: 100.0 mg/kg/injection, schedule: Q01DX009 (ip), vehicle: Klucel (hydroxypropylcellulose) (HPC)): 93 % of control
- T/C (dose: 200.0 mg/kg/injection, schedule: Q01DX009 (ip), vehicle: Klucel (hydroxypropylcellulose) (HPC)): 93 % of control
